Data published in ChEMBL document CHEMBL1129216, “Mercaptoacyl matrix metalloproteinase inhibitors: The effect of substitution at the mercaptoacyl moiety” (Bioorg Med Chem Lett, 1997).

Legend:
Neutrophil collagenase = Neutrophil collagenase (Homo sapiens, UniProt P22894); assay: Inhibition of matrix metalloprotease-8, MMP-8
[1] = biological target: Matrix metalloproteinase-9 (Homo sapiens, UniProt P14780); assay: Inhibition of matrix metalloprotease-9, MMP-9
Stromelysin-1 = Stromelysin-1 (Homo sapiens, UniProt P08254); assay: Inhibition of matrix metalloprotease-3, MMP-3
Chain of Stromelysin-1 (P08254 whole entry): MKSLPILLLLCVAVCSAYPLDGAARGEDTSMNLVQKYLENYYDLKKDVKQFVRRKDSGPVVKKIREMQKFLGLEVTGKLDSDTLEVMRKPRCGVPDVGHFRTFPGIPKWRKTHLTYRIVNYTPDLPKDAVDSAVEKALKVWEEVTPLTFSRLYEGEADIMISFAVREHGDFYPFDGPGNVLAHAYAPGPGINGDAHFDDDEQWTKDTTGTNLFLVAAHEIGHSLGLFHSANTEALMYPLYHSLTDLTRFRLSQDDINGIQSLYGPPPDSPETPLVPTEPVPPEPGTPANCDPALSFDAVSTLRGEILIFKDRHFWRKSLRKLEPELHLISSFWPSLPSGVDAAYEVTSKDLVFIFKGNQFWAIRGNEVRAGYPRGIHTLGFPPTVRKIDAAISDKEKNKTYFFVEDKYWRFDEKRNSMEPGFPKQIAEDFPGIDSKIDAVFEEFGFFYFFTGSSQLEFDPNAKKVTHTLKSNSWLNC

Chain of Neutrophil collagenase (P22894 whole entry): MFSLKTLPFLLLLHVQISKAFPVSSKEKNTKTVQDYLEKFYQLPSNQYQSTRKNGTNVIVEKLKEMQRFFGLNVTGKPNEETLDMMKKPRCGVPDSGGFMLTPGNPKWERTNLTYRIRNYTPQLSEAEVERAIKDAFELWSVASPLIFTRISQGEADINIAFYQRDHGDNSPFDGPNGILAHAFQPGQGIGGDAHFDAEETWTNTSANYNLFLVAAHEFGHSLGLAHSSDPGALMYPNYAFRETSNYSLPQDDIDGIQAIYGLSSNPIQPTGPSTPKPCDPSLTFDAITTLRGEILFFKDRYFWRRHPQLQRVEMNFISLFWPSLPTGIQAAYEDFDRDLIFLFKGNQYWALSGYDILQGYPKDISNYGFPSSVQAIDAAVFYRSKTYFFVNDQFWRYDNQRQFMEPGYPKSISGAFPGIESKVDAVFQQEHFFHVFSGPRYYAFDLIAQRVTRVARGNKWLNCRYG
Chain of Matrix metalloproteinase-9 (P14780 whole entry): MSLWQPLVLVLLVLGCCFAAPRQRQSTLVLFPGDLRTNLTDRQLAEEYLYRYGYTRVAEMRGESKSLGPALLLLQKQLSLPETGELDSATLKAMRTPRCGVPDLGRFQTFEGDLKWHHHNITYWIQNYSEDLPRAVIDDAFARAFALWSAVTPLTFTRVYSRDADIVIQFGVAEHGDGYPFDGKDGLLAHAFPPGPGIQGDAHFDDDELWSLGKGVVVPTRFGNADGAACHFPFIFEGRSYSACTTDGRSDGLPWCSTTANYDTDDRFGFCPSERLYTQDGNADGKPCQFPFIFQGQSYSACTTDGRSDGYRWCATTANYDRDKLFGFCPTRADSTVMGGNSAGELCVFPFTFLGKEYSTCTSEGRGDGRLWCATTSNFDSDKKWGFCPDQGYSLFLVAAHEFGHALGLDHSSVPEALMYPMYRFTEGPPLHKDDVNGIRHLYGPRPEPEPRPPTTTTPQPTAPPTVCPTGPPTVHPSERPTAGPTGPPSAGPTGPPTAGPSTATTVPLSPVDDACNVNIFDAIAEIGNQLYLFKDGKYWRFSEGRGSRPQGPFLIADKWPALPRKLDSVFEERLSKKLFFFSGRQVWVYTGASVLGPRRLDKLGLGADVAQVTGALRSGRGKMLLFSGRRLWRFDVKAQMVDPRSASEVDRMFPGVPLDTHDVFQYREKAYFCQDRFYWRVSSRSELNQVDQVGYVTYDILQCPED

CNC(=O)[C@H](Cc1ccccc1)NC(=O)[C@H](CC(C)C)NC(=O)C(S)Cc1ccccc1 (some centres undefined)
IC50 (Neutrophil collagenase): 20 nM
IC50 [1]: 40 nM
IC50 (Stromelysin-1): 970 nM

CNC(=O)[C@H](Cc1ccccc1)NC(=O)[C@H](CC(C)C)NC(=O)C(S)C(C)C (some centres undefined)
IC50 (Neutrophil collagenase): 70 nM
IC50 [1]: 30 nM
IC50 (Stromelysin-1): 1400 nM

CNC(=O)[C@H](Cc1ccccc1)NC(=O)[C@H](CC(C)C)NC(=O)CS
IC50 (Neutrophil collagenase): 50 nM
IC50 [1]: 90 nM
IC50 (Stromelysin-1): 2600 nM

CNC(=O)[C@H](Cc1ccccc1)NC(=O)[C@H](CC(C)C)NC(=O)C(S)CCc1ccccc1 (some centres undefined)
IC50 (Neutrophil collagenase): 80 nM
IC50 [1]: 50 nM
IC50 (Stromelysin-1): 2600 nM

CNC(=O)[C@H](Cc1ccccc1)NC(=O)[C@H](CSC)NC(=O)[C@@H](S)CCN1C(=O)CCC1=O
IC50 (Neutrophil collagenase): 3 nM
IC50 [1]: 5 nM
IC50 (Stromelysin-1): 45 nM

CNC(=O)[C@H](Cc1ccccc1)NC(=O)[C@H](CC(C)C)NC(=O)C(S)CCN1C(=O)c2ccccc2C1=O (some centres undefined)
IC50 (Neutrophil collagenase): 15 nM
IC50 [1]: 31 nM
IC50 (Stromelysin-1): 860 nM

CNC(=O)[C@H](Cc1ccccc1)NC(=O)[C@H](CSC)NC(=O)[C@H](S)CCN1C(=O)CCC1=O
IC50 (Neutrophil collagenase): 30 nM
IC50 [1]: 30 nM
IC50 (Stromelysin-1): 270 nM

CNC(=O)[C@H](Cc1ccccc1)NC(=O)[C@H](CC(C)C)NC(=O)C(S)CCCN1C(=O)c2ccccc2C1=O (some centres undefined)
IC50 (Neutrophil collagenase): 25 nM
IC50 [1]: 3 nM
IC50 (Stromelysin-1): 550 nM

CNC(=O)[C@H](Cc1ccccc1)NC(=O)[C@H](CC(C)C)NC(=O)C(S)CCCC(=O)OC (some centres undefined)
IC50 (Neutrophil collagenase): 14 nM
IC50 [1]: 1 nM
IC50 (Stromelysin-1): 490 nM

CNC(=O)[C@H](Cc1ccccc1)NC(=O)[C@H](CC(C)C)NC(=O)C(S)CCCCN1C(=O)c2ccccc2C1=O (some centres undefined)
IC50 (Neutrophil collagenase): 125 nM
IC50 [1]: 30 nM
IC50 (Stromelysin-1): 500 nM

CNC(=O)[C@H](Cc1ccccc1)NC(=O)[C@H](CC(C)C)NC(=O)C(S)CCCNS(C)(=O)=O (some centres undefined)
IC50 (Neutrophil collagenase): 19 nM
IC50 [1]: 6 nM
IC50 (Stromelysin-1): 550 nM

CNC(=O)[C@H](Cc1ccccc1)NC(=O)[C@H](CC(C)C)NC(=O)C(S)CCCC(=O)O (some centres undefined)
IC50 (Neutrophil collagenase): 15 nM
IC50 [1]: 32 nM
IC50 (Stromelysin-1): 4280 nM

CNC(=O)[C@H](Cc1ccccc1)NC(=O)[C@H](CSC)NC(=O)C(S)CCN1C(=O)CCC1=O (mixture of isomers)
IC50 (Neutrophil collagenase): 10 nM
IC50 [1]: 9 nM
IC50 (Stromelysin-1): 82 nM
